The subject of data set [1] is fondaparinux anticoagulation. Nature of the data set: DAP reversal of fondaparinux (ARIXTRA®) anticoagulation in vivo, chromogenic Factor Xa assay. Set-up: species or system rat. Here is the method:
The anti-factor Xa assay directly measures anti-factor Xa activity. The methodology behind an anti-factor Xa assay is that patient plasma is added to a known amount of excess factor Xa and excess antithrombin. If a factor Xa inhibitor is present in the patient plasma, it will reduce the enzymatic activity of factor Xa. The amount of residual factor Xa is inversely proportional to the amount of anti-Xa agent in the plasma. The amount of residual factor Xa is detected by adding a chromogenic substrate that mimics the natural substrate of factor Xa, making residual factor Xa cleave it, releasing a colored compound that can be detected by a spectrophotometer. […] Results are given in anticoagulant concentration in units/mL of antifactor Xa, such that high values indicate high levels of anticoagulation and low values indicate low levels of anticoagulation.
5 mg/kg fondaparinux was administered subcutaneously to rats. 200 mg/kg DAP was administered intravenously after 2 hours. Activity was measured by chromogenic 510 k cleared Factor Xa Assay (Biophen) at 10, 20, 30 and 60 minutes after DAP administration.

Data set [2] has as its system LMWH (bemiparin) anticoagulation. Nature of the data set: DAP reversal of LMWH (bemiparin) anticoagulation in vivo, aPTT. Set-up: species or system rat. From the text: The activated partial thromboplastin time (aPTT) assay is an assay that measures how long it takes for the blood to clot. Blood samples are collected for direct measurement or in tubes with oxalate and citrate to arrest coagulation by calcium until the assay can be performed. In the assay, a phospholipid, an activator (silica, celite, kaolin, ellagic acid, etc.), and calcium are mixed into the plasma to induce coagulation. The assay measures the time until a thrombus (clot) forms.
A male albino rat, weighing 470 g, was administered 10 mg of bemiparin (an overdose of LMWH) by subcutaneous injection. aPTT time was measured over the course of five hours. Four hours after LMWH administration, the rat received an intravenous dose of 200 mg/kg of DAP (100 mg DAP).

Data set [3] is described as follows: Stability of DAP powder: storage at 4° C. and differential scanning calorimetry. The format is physicochemical. The method, then: An acetate salt of DAP was prepared as described herein. As described in these examples, DAP solid or powder refers to the acetate salt, while DAP in solution refers to the free base as the salt ionizes in aqueous solution. As described in these examples, the DAP compound used was the compound of Formula VII.
The DAP powder was tested for thermal stability in two ways. DAP was stored at 4° C. for 7 months prior to use. Additionally, the DAP solid was tested by differential scanning calorimetry (DSC) by heating from −20° C. to 200° C., back to −20° C. and again to 200° C.

We go through one molecule from patent US9877961B2, “Anticoagulant reversal agents” (PEROSPHERE INC., priority 2011, dated 2018).

Structures are written as SMILES.

On to `N=C(N)NCCC[C@H](N)C(=O)NCCCN1CCN(CCCNC(=O)[C@@H](N)CCCNC(=N)N)CC1` (stereo in doubt) [DAP, 2-Amino-5-guanidino-pentanoic acid (3-{4-[3-(2-amino-5-guanidino-pentanoylamino)-propyl]-piperazin-1-yl}-propyl)-amide], for which, in data set [1] (5 mg/kg fondaparinux s.c., 200 mg/kg DAP i.v. after 2 hours), the “time to reversal of fondaparinux anticoagulation” value is at most 10 min. Moreover, in data set [1] (rats, Xa activity), the “reversal of subcutaneous fondaparinux in vivo” value is listed as “reversed”. Besides, the “time until aPTT below baseline after DAP” value in data set [2] (200 mg/kg (100 mg) DAP i.v. four hours after 10 mg bemiparin s.c.) is at most 60 min. In data set [2] (rats, aPTT), the “reversal of subcutaneous LMWH anticoagulation in vivo” value is “reversed”. Besides, the “stability to storage as a lyophilized powder” value in data set [3] (4° C.) was “more than one year”. In data set [3] (4° C., powder (acetate salt)), the “stability of DAP powder on storage” value was “more than 12 months”. For the same molecule, the “thermal stability (DSC, stability to sterilization)” value in data set [3] (heating from −20° C. to 200° C., twice) is “survived repeated heating to 200 °C”.
